From patent US20220195666A1, “USE OF A PLURALITY OF SALT IONIC LIQUIDS IN THE PRETREATMENT OF BIOMASS” (priority 2020, published 2022) come the findings set out here.

The structures appear in SMILES notation.

The data set is described as follows: Thermal gravimetric analysis of the ILs and DSILs. The class given is physicochemical. As to conditions: TGA under nitrogen, 10° C./min. The method, then: Thermal behavior was determined using a Mettler Toledo Stare TGA/DSC1 unit (Mettler Toledo, Leicester, UK) under nitrogen. Samples between 3 and 10 mg were placed in alumina crucibles (70 μL) and heated from room temperature to 75° C. at a heating rate of 10° C./min. An isotherm at 75° C. was maintained for 30 min to eliminate all volatiles, if any. After the isothermal step, the temperature was ramped to 800° C. at a heating rate of 10° C./min. The data was analyzed using STARe Evaluation software.
Take `CCCCCCCCCCCCCCCC(=O)[O-].C[N+](C)(C)CCO` [[Ch][Pal], cholinium palmitate]: the “T5% (decomposition temperature of 5% sample)” value was found to be 177.7 °C and the “T50% (decomposition temperature of 50% sample)” value stood at 225.3 °C.

In the case of `CC(=O)[O-].C[N+](C)(C)CCO` [[Ch][Ace], cholinium acetate], the “T5% (decomposition temperature of 5% sample)” value was 173.1 °C and the “T50% (decomposition temperature of 50% sample)” value was 211.4 °C.

As to `CCCCCCCC(=O)[O-].C[N+](C)(C)CCO` [[Ch][Oct], cholinium octanoate], the “T5% (decomposition temperature of 5% sample)” value was determined as 180.7 °C and the “T50% (decomposition temperature of 50% sample)” value was 209.5 °C.

For the compound `C[N+](C)(C)CCO.NCCCC[C@H](N)C(=O)[O-]` [[Ch][Lys], cholinium lysinate], the “T5% (decomposition temperature of 5% sample)” value was 155.9 °C and the “T50% (decomposition temperature of 50% sample)” value was determined as 218.1 °C.
